Source: ChEMBL document CHEMBL5465560, “Selectivity Literature for EUbOPEN Chemogenomic Library” (2024)

Key:
[1] = target: Mitogen-activated protein kinase 3 (Homo sapiens, UniProt P27361); test: Selectivity interaction (Upstate Kinase Profiler service (Millipore)) EUB0000056c MAPK3; conditions: at 1 µM
[2] = target: T1, Ephrin type-A receptor 3 (Homo sapiens) (UniProt P29320); test: Selectivity interaction (Upstate Kinase Profiler service (Millipore)) EUB0000056c EPHA3; conditions: at 1 µM
T1 sequence (whole entry): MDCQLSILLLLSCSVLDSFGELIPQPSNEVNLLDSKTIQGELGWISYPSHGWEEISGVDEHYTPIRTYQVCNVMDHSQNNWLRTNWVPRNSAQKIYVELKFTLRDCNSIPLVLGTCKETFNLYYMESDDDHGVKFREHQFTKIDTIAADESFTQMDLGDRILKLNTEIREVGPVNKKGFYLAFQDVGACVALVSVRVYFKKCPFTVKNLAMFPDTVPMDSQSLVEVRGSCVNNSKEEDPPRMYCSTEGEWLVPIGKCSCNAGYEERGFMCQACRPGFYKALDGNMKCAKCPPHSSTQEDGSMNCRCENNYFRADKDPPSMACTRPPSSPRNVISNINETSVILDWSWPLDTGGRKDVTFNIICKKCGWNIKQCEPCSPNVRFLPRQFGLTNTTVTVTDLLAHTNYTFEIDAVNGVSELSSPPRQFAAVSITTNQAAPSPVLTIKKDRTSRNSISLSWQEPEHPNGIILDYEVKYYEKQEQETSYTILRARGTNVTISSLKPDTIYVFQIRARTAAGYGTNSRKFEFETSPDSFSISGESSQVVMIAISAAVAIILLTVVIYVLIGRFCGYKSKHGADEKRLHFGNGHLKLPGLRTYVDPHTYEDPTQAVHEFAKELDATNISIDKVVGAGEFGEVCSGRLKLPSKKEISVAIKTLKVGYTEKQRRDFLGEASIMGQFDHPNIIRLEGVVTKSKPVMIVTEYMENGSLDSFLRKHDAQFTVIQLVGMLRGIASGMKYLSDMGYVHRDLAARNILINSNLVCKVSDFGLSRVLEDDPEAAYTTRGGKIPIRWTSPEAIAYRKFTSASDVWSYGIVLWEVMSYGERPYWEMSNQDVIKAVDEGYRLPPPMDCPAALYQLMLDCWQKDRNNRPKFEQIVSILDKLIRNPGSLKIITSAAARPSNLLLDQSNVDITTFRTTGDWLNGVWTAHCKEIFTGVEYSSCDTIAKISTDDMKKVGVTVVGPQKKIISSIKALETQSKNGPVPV

[3] = target: T2, Serine/threonine-protein kinase Nek11 (Homo sapiens) (UniProt Q8NG66); test: Selectivity interaction (ProQinase) EUB0000171b NEK11
T2 sequence (whole entry): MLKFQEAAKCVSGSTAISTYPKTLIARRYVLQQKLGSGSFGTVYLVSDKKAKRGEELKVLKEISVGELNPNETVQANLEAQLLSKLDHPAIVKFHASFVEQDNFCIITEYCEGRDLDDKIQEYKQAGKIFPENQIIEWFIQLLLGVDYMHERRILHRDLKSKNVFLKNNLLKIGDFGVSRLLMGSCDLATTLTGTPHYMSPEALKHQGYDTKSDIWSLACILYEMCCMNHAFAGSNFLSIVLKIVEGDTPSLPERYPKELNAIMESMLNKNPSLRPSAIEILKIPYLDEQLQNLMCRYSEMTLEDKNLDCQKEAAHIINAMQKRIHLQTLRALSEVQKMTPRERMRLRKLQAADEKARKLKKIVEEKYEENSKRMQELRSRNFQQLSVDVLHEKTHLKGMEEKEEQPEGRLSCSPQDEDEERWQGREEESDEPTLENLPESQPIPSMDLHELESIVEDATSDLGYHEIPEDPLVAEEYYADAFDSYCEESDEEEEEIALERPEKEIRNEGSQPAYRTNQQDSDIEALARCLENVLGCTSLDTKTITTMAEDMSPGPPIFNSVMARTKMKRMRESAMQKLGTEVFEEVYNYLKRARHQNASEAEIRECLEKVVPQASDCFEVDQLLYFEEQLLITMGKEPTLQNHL

[4] = target: Serine/threonine-protein kinase MRCK gamma (Homo sapiens) (UniProt Q6DT37); test: Selectivity interaction (KinomeScan (DiscoverX)) EUB0001079a CDC42BPG; conditions: at 1 µM
[5] = target: Serine/threonine-protein kinase PAK 3 (Homo sapiens) (UniProt O75914); test: Selectivity interaction (KinomeScan (DiscoverX)) EUB0001079a PAK3; conditions: at 1 µM
[6] = target: T3, Scaffold protein ILK (Homo sapiens) (UniProt Q13418); test: Selectivity interaction (Kinase panel (KiNativ target engagement assay in Jurkat cells)) EUB0001635a ILK; assay type: cell-based; conditions: Selectivity number of off-targets 0.0, Selectivity number of targets 233.0, Source Knowledge https://www.sciencedirect.com/science/article/pii/S2451945619300674?via%3Dihub, at 1 µM
T3 sequence (whole entry): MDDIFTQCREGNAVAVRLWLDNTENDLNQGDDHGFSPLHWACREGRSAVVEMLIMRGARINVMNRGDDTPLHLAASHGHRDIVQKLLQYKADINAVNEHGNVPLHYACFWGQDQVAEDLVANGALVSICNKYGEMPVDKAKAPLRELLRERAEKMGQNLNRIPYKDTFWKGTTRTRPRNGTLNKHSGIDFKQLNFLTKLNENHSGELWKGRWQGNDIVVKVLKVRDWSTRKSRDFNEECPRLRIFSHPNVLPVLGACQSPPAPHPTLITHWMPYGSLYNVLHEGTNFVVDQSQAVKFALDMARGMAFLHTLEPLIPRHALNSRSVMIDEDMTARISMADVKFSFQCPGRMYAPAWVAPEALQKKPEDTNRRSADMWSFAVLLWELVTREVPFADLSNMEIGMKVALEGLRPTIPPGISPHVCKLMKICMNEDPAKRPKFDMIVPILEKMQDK

[7] = target: Cyclin-dependent kinase 13 (Homo sapiens, UniProt Q14004); test: Selectivity interaction (KinomeScan (DiscoverX)) EUB0000666a CDK13; conditions: at 10 µM
[8] = target: Protein-tyrosine kinase 2-beta (Homo sapiens) (UniProt Q14289); test: Selectivity interaction (KinomeScan (DiscoverX)) EUB0000695a PTK2B; conditions: at 100 nM
[9] = target: MAP/microtubule affinity-regulating kinase 3 (Homo sapiens) (UniProt P27448); test: Selectivity interaction (KinomeScan (DiscoverX)) EUB0000595a MARK3; conditions: at 10 µM
[10] = target: SRSF protein kinase 3 (Homo sapiens) (UniProt Q9UPE1); test: Selectivity interaction (KinomeScan (DiscoverX)) EUB0000595a SRPK3; conditions: at 10 µM
[11] = target: Proto-oncogene tyrosine-protein kinase Src (Homo sapiens, UniProt P12931); test: Selectivity interaction (ActivX KiNativ screen (ex vivo kinase selectivity in human PBMCs)) EUB0001619a SRC; assay type: cell-based; conditions: PBMC, at 1 µM
[12] = target: Serine/threonine-protein kinase 38 (Homo sapiens) (UniProt Q15208); test: Selectivity interaction (ActivX KiNativ screen (ex vivo kinase selectivity in human PBMCs)) EUB0001619a STK38; assay type: cell-based; conditions: PBMC, at 1 µM
Sequence of Serine/threonine-protein kinase 38 (Homo sapiens) (Q15208 2-465 limits assumed): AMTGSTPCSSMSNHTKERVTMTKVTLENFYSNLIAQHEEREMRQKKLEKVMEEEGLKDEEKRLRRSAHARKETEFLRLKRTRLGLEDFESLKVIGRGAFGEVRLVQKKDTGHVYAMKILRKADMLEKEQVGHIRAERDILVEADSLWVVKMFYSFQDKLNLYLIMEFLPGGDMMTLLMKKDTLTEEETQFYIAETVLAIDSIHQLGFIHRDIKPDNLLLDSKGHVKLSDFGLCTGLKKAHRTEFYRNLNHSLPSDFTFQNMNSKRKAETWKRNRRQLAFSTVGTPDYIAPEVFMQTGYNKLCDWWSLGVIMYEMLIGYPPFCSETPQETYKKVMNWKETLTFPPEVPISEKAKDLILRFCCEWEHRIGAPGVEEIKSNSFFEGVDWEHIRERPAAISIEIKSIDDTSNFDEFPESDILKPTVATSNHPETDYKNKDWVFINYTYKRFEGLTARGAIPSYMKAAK

Sequence of Serine/threonine-protein kinase PAK 3 (Homo sapiens) (O75914 whole entry, looked up): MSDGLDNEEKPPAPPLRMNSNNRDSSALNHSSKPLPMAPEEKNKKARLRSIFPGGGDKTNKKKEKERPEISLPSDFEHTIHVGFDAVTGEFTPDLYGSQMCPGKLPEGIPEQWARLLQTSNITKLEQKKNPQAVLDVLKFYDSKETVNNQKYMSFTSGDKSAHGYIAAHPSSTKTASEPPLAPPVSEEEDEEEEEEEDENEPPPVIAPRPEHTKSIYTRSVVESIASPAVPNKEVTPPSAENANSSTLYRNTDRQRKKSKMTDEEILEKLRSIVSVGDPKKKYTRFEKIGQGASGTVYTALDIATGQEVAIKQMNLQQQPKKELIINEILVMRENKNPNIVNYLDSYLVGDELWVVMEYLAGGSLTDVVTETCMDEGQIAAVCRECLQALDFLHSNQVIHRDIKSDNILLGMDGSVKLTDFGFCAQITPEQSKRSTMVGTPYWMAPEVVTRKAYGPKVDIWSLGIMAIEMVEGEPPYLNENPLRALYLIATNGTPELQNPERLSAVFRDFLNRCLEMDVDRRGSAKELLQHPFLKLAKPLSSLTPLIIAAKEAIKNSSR
Sequence of Mitogen-activated protein kinase 3 (P27361 whole entry): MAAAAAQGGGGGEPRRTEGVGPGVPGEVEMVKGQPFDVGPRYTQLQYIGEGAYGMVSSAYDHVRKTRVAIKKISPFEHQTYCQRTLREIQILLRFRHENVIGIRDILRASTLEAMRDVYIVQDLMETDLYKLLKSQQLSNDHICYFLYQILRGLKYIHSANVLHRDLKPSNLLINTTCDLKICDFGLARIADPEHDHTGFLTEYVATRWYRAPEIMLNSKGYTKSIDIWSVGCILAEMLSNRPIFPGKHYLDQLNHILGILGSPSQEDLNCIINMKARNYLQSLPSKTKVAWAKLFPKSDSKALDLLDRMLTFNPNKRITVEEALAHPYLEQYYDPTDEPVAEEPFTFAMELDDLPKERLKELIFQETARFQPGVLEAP
Sequence of SRSF protein kinase 3 (Homo sapiens) (Q9UPE1 whole entry): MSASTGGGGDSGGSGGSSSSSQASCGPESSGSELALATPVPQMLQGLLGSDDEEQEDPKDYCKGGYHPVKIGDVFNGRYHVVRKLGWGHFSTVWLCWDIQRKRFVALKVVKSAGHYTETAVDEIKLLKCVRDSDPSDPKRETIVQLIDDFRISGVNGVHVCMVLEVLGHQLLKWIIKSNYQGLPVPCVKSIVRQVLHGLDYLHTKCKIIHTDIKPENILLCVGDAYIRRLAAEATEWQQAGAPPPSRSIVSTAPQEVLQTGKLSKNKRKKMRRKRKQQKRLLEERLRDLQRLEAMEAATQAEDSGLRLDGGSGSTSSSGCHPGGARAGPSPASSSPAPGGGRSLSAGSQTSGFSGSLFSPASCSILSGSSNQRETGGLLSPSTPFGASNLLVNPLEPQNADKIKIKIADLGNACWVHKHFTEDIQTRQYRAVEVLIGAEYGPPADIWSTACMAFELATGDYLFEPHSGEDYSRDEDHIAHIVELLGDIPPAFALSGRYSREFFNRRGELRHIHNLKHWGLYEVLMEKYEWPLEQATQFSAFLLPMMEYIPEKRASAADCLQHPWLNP
Sequence of MAP/microtubule affinity-regulating kinase 3 (Homo sapiens) (P27448 whole entry, looked up): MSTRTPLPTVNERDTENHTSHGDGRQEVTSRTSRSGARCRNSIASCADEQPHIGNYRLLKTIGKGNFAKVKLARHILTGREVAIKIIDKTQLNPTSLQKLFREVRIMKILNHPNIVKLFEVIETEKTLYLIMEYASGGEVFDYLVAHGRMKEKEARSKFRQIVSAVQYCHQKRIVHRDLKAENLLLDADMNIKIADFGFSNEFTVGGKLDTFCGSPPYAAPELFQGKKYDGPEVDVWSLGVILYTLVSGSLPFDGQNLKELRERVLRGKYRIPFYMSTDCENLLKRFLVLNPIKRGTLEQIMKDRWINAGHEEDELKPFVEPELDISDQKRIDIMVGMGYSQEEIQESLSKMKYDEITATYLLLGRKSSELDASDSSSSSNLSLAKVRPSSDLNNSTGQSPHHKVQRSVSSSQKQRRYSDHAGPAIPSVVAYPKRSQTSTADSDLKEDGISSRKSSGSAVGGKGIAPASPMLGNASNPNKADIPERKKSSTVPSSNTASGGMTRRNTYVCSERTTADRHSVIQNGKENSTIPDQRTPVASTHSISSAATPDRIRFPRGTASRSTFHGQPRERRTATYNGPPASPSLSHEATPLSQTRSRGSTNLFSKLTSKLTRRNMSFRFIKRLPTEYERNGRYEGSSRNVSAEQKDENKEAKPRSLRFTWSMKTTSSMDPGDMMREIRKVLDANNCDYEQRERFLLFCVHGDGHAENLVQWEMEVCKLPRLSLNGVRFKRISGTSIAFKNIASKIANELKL
Sequence of Cyclin-dependent kinase 13 (Q14004 whole entry, looked up): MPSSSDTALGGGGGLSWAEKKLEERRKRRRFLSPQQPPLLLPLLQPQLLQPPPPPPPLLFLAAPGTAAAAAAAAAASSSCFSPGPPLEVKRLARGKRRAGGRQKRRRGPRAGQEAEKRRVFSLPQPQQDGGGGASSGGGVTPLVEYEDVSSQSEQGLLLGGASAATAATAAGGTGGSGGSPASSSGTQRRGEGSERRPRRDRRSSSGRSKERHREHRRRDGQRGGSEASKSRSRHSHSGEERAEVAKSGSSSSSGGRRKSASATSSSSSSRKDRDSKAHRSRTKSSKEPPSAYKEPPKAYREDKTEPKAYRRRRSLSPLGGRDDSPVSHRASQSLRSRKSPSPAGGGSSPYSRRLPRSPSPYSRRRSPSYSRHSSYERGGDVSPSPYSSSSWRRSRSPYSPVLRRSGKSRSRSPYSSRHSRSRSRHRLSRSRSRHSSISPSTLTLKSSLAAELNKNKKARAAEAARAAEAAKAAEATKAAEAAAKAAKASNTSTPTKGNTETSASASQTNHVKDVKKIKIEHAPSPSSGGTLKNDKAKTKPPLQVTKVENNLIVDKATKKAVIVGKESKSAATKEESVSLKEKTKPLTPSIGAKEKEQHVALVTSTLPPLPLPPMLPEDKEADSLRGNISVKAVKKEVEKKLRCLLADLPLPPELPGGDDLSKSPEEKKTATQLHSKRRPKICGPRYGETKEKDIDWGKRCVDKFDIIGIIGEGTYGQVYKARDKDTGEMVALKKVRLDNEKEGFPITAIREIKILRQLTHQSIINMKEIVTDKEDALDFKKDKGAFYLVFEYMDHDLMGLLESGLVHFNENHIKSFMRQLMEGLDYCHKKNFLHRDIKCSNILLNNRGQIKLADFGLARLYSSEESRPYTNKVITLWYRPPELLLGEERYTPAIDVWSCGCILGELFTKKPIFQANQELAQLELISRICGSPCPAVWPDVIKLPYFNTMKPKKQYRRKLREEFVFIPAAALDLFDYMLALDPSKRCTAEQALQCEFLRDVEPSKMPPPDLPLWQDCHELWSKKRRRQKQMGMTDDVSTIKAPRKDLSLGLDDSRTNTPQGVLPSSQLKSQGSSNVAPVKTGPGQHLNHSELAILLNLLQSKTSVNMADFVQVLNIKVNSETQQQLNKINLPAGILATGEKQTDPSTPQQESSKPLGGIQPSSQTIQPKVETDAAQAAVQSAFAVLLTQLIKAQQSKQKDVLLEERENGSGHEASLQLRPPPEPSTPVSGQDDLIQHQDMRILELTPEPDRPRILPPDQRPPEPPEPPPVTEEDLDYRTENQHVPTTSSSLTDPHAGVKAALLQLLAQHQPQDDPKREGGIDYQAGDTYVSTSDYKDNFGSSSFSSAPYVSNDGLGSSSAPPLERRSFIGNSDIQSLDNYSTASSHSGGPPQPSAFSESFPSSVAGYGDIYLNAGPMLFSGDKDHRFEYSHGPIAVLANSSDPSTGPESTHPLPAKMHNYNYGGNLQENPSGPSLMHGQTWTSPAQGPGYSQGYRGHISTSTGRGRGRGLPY
Sequence of Proto-oncogene tyrosine-protein kinase Src (P12931 2-536 limits assumed): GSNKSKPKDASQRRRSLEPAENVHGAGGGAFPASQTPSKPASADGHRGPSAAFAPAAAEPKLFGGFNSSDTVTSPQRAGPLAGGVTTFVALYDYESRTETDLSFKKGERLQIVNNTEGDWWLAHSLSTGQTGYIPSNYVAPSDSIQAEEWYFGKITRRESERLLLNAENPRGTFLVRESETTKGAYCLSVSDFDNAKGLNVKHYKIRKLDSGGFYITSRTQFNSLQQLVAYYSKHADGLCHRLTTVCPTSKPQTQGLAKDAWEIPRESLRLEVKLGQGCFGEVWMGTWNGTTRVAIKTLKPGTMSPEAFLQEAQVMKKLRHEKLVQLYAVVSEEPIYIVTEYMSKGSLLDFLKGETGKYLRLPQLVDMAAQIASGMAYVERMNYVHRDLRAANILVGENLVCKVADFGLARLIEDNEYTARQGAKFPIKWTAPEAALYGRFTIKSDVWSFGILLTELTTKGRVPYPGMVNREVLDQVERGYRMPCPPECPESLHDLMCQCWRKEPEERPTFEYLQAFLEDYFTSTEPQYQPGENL

SMILES: Cc1ccc(-c2ccc3c(ccc4sc5c(c43)NC[C@@H](C)NC5=O)n2)cn1
- % of inhibition [1]: -1%
- % of inhibition [2]: -1%

SMILES: C=CC(=O)Nc1cccc(C(=O)Nc2ccc(Nc3cc(-c4[nH]c(SC)nc4C)ccn3)cc2)c1
- % of control ([3]; at 1 µM): 103%
- % of control ([3]; at 5 µM): 87%

SMILES: Nc1cnc(N2CCc3cc(S(=O)(=O)Nc4c(F)cc(Cl)cc4F)cc(N4CCCC4=O)c32)nc1 [TP-020n]
- % of control [4]: 100%
- % of control [5]: 100%

SMILES: C=CC(=O)Nc1ccc(C(=O)Nc2[nH]nc3c2CN(C(=O)N[C@H](CN(C)C)c2ccccc2)C3(C)C)cc1
- % of engagement [6]: -11.5%

SMILES: O=C(NOC[C@H](O)CO)c1ccc(F)c(F)c1Nc1ccc(I)cc1F
- % of control [7]: 84%

SMILES: Cc1cc(F)c(C(=O)Nc2cccc(-c3nncn3C(C)C)n2)cc1-n1cnc(C2CC2)c1
- % of control [8]: 100%

SMILES: COCC(=O)NC/C=C/c1ccc2ncnc(Nc3ccc(Oc4ccc(C)nc4)c(C)c3)c2c1 [CP-724714]
- % of control [9]: 100%
- % of control [10]: 100%

SMILES: N#Cc1cccc(-c2c[nH]c3ncnc(N4CCOCC4)c23)c1
- % of inhibition [11]: -9%
- % of inhibition [12]: 3%
